The values that follow come from ChEMBL document CHEMBL4177696, “Identification of a diverse synthetic abietane diterpenoid library and insight into the structure-activity relationships for antibacterial activity” (Bioorg Med Chem Lett, 2017).

For one data set, the system named is Escherichia coli. Nature of the data set: Antibacterial activity against Escherichia coli measured after 24 hrs. Format: functional.
The nature of data set [1]: Cytotoxicity against human HL-7702 cells measured after 72 hrs by MTT assay. Format: cell-based. Conditions: HL-7702 (L02) cells. For orientation: Formazan colour is commonly taken as a measure of viable cells.
The subject of the next data set is Bacillus subtilis. Nature of the data set: Antibacterial activity against Bacillus subtilis measured after 24 hrs. Type of data set: functional.
A short description of data set [2]: Cytotoxicity against HFF measured after 72 hrs by MTT assay. Type of data set: cell-based. The conditions noted are these: human, HFF cells.
The test system of the next data set is Pseudomonas fluorescens. Nature of the data set: Antibacterial activity against Pseudomonas fluorescens measured after 24 hrs. Type of data set: functional.
For a further data set, the system named is Staphylococcus aureus. Nature of the data set: Antibacterial activity against Staphylococcus aureus measured after 24 hrs. Format: functional.

Values after ≈ are worked out from the molar mass of the structure shown.

Turning to `CCOCO[C@]12CCC[C@]3(CO1)c1ccc(C(C)C)c(OC)c1CC[C@@H]23`, the MIC stood at 3.1 mg/L (≈ 8.6 µM) against Escherichia coli, 6.3 mg/L (≈ 17.5 µM) in the data set with Bacillus subtilis, 3.1 mg/L (≈ 8.6 µM) against Pseudomonas fluorescens and 3.1 mg/L (≈ 8.6 µM) in the data set on Staphylococcus aureus. In addition, the cytotoxic concentration (CC50) at 72 h was found to be 5.4 mg/L (≈ 15 µM) in data set [1] and 8.2 mg/L (≈ 22.7 µM) in data set [2].
`COC(=O)[C@]1(C)CCC[C@]2(C)c3ccc(C(C)C)c(NC(=O)Cn4cc(-c5cccc(NC(C)=O)c5)nn4)c3CC[C@@H]12`: the minimum inhibitory concentration (MIC) with Escherichia coli was determined as 3.1 mg/L (≈ 5.42 µM); with Bacillus subtilis it was 6.3 mg/L (≈ 11 µM); in the data set on Pseudomonas fluorescens, 6.3 mg/L (≈ 11 µM); with Staphylococcus aureus, 6.3 mg/L (≈ 11 µM). In addition, the cytotoxic concentration (CC50) at 72 h in data set [1] came to 9.7 mg/L (≈ 17 µM); in data set [2], 12.2 mg/L (≈ 21.3 µM).
Consider `COC(=O)[C@]1(C)CCC[C@]2(C)c3ccc(C(C)C)c(NC(=O)Cn4cc(-c5cccnc5)nn4)c3CC[C@@H]12`, for which the MIC in the data set with Escherichia coli came to 3.1 mg/L (≈ 6.01 µM); in the data set with Bacillus subtilis, 12.5 mg/L (≈ 24.2 µM); in the data set on Pseudomonas fluorescens, 6.3 mg/L (≈ 12.2 µM); against Staphylococcus aureus it was 3.1 mg/L (≈ 6.01 µM). Also, the values for the CC50 at 72 h in data set [1] and in data set [2] were 47.9 mg/L (≈ 92.9 µM) and 48.2 mg/L (≈ 93.5 µM), respectively.
In the case of `COc1cccc2c1CC[C@H]1[C@H]3COC(=O)[C@@]3(O)C(=O)C[C@]21C`, the minimum inhibitory concentration (MIC) was found to be 1.6 mg/L (≈ 5.06 µM) against Escherichia coli, 0.8 mg/L (≈ 2.53 µM) in the data set with Bacillus subtilis, 1.6 mg/L (≈ 5.06 µM) with Pseudomonas fluorescens and 1.6 mg/L (≈ 5.06 µM) against Staphylococcus aureus. Further, the CC50 at 72 h is 47.5 mg/L (≈ 150 µM) in data set [1] and greater than 50 mg/L in data set [2].
Turning to `CCOCOC[C@]12CCC(=C(SC)SC)C(=O)[C@@H]1CCc1c2ccc(C(C)C)c1OC`, the MIC in the data set on Escherichia coli came out at 6.3 mg/L (≈ 13.6 µM); with Bacillus subtilis, 0.8 mg/L (≈ 1.72 µM); in the data set on Pseudomonas fluorescens, 1.6 mg/L (≈ 3.44 µM); in the data set on Staphylococcus aureus, 6.3 mg/L (≈ 13.6 µM). In addition, the half-maximal cytotoxic concentration (CC50) at 72 h in data set [1] worked out at 13.2 mg/L (≈ 28.4 µM); in data set [2], 11.4 mg/L (≈ 24.5 µM).
In the case of `COc1cccc2c1CC[C@H]1[C@H]3COC(=O)C3=CC[C@]21C`, the MIC was 3.1 mg/L (≈ 10.9 µM) in the data set on Escherichia coli, 6.3 mg/L (≈ 22.2 µM) against Bacillus subtilis, 6.3 mg/L (≈ 22.2 µM) in the data set on Pseudomonas fluorescens and 6.3 mg/L (≈ 22.2 µM) in the data set with Staphylococcus aureus. Moreover, the CC50 at 72 h in data set [1] was found to be 9.9 mg/L (≈ 34.8 µM); in data set [2], 25.2 mg/L (≈ 88.6 µM).
As to `COc1c(C(C)C)ccc2c1[C@H](O)C=C1C3=C(CCC12C)C(=O)OC3` (single isomer, unassigned), the MIC against Escherichia coli came to 3.1 mg/L (≈ 9.11 µM); against Bacillus subtilis, 6.3 mg/L (≈ 18.5 µM); in the data set with Pseudomonas fluorescens it was 3.1 mg/L (≈ 9.11 µM); in the data set with Staphylococcus aureus it was 3.1 mg/L (≈ 9.11 µM). The CC50 at 72 h in data set [1] worked out at 10.3 mg/L (≈ 30.3 µM); in data set [2], 9.2 mg/L (≈ 27 µM).
Turning to `COC(=O)[C@]1(C)CCC[C@]2(C)c3ccc(C(C)C)c(NC(=O)Cn4cc(-c5cncnc5)nn4)c3CC[C@@H]12`, the MIC against Escherichia coli was found to be 1.6 mg/L (≈ 3.1 µM); against Bacillus subtilis, 3.1 mg/L (≈ 6 µM); against Pseudomonas fluorescens, 1.6 mg/L (≈ 3.1 µM); against Staphylococcus aureus, 1.6 mg/L (≈ 3.1 µM). Moreover, the CC50 at 72 h in data set [1] turned out to be 31.7 mg/L (≈ 61.4 µM); in data set [2] it was 41.8 mg/L (≈ 80.9 µM).
As to `C=C1C(=O)CC[C@]2(C)c3cccc(OC)c3CC[C@@H]12`, the MIC in the data set on Escherichia coli was 6.3 mg/L (≈ 24.6 µM); with Bacillus subtilis, 6.3 mg/L (≈ 24.6 µM); with Pseudomonas fluorescens, 3.1 mg/L (≈ 12.1 µM); against Staphylococcus aureus, 3.1 mg/L (≈ 12.1 µM). The CC50 at 72 h in data set [1] was 9.3 mg/L (≈ 36.3 µM); in data set [2] it was 9.1 mg/L (≈ 35.5 µM).
Take `COC(=O)[C@]1(C)CCC[C@]2(C)c3ccc(C(C)C)c(NC(=O)Cn4cc(-c5ccc([N+](=O)[O-])cc5)nn4)c3CC[C@@H]12`: the MIC against Escherichia coli stood at 75 mg/L (≈ 134 µM); in the data set on Bacillus subtilis it was 50 mg/L (≈ 89.3 µM); with Pseudomonas fluorescens it was 12.5 mg/L (≈ 22.3 µM); in the data set with Staphylococcus aureus, 25 mg/L (≈ 44.7 µM).
`COC(=O)[C@]1(C)CCC[C@]2(C)c3ccc(C(C)C)c(NC(=O)Cn4cc(-c5cccc(NC(=O)OC(C)(C)C)c5)nn4)c3CC[C@@H]12`: the MIC came to 12.5 mg/L (≈ 19.8 µM) in the data set on Escherichia coli, 12.5 mg/L (≈ 19.8 µM) in the data set on Bacillus subtilis, 25 mg/L (≈ 39.7 µM) in the data set with Pseudomonas fluorescens and 6.3 mg/L (≈ 10 µM) in the data set on Staphylococcus aureus.

A word on the MIC: it is the least concentration at which growth counts as inhibited. Read a high MIC as a need for much substance. The CC50 is the concentration giving 50% cytotoxicity. A higher CC50 goes with better tolerance by the cells.
